In ChEMBL document CHEMBL1127238, “The discovery of L-699,392, a novel potent and orally active leukotriene D4 receptor antagonist” (Bioorg Med Chem Lett, 1994):

Legend:
[1] = molecular target: T1, Cysteinyl leukotriene receptor 1 (Cavia porcellus, UniProt Q2NNR5); assay: Inhibitory activity against binding of [3H]LTD4 to Cysteinyl leukotriene D4 receptor in guinea pig lung membranes; format: cell membranes, Membrane
T1 sequence (Q2NNR5 whole entry): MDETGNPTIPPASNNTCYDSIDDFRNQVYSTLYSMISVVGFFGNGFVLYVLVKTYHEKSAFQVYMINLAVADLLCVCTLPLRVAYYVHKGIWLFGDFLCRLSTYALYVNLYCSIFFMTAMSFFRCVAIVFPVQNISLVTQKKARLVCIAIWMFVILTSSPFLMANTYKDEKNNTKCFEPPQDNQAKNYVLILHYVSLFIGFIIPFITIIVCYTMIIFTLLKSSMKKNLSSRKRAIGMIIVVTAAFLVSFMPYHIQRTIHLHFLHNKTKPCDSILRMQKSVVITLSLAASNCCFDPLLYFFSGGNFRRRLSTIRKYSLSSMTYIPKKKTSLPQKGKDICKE

[2] = Compound was tested for plasma clearance in rats after 5 mg/kg of intravenous dosing; format: ADME, organism-based; parameters: dose 5 mg/kg, route intravenous; conditions: rat
[3] = Apparent bioavailability in squirrel monkey was determined; format: ADME, organism-based; conditions: in vivo; read-out: Bioavailabiility

Row | Structure (SMILES) | IC50 [1] [nM] | clearance [2] [mL/min/kg] | bioavailability [3] [%]
1 | C[C@H](CS[C@@H](CCc1ccccc1C(=O)c1ccccc1)c1cccc(/C=C/c2ccc3ccc(Cl)cc3n2)c1)C(=O)O | 4.3 | 18 | –
2 | CC(=O)c1ccccc1CC[C@H](SC[C@@H](C)C(=O)O)c1cccc(/C=C/c2ccc3ccc(Cl)cc3n2)c1 | 3 | 11 | 52
3 | C[C@H](CS[C@@H](CCc1ccccc1CO)c1cccc(/C=C/c2ccc3ccc(Cl)cc3n2)c1)C(=O)O | 3.1 | 5 | –
4 | C[C@H](CS[C@@H](CCc1ccccc1C=O)c1cccc(/C=C/c2ccc3ccc(Cl)cc3n2)c1)C(=O)O | 2 | 6 | –
5 | COC(=O)c1cccc(CC[C@H](SC[C@@H](C)C(=O)O)c2cccc(/C=C/c3ccc4ccc(Cl)cc4n3)c2)c1 | 7 | 6 | –
6 | C[C@H](CS[C@@H](CCc1ccccc1CC(C)(C)O)c1cccc(/C=C/c2ccc3ccc(Cl)cc3n2)c1)C(=O)O | 1 | 33 | –
7 | CC(=O)c1cccc(CC[C@H](SC[C@@H](C)C(=O)O)c2cccc(/C=C/c3ccc4ccc(Cl)cc4n3)c2)c1 | 5.9 | 2 | –
8 | CCC(=O)c1ccccc1CC[C@H](SC[C@@H](C)C(=O)O)c1cccc(/C=C/c2ccc3ccc(Cl)cc3n2)c1 | 3.7 | 13 | –
9 | C[C@H](CS[C@@H](CCc1cccc(CO)c1)c1cccc(/C=C/c2ccc3ccc(Cl)cc3n2)c1)C(=O)O | 2.1 | 2.5 | –
10 | C[C@H](CS[C@@H](CCc1ccccc1C(C)(C)O)c1cccc(/C=C/c2ccc3ccc(Cl)cc3n2)c1)C(=O)O | 2.7 | 14 | –
11 | CCOC(=O)c1ccccc1CC[C@H](SC[C@@H](C)C(=O)O)c1cccc(/C=C/c2ccc3ccc(Cl)cc3n2)c1 | 3.7 | 4.8 | –
